Experimental data taken from article PMC12193833, “Toxicity Assessment and Antifungal Potential of Copper(II) and Silver(I) Complexes with 1,10-Phenanthroline-5,6-dione Against Drug-Resistant Clinical Isolates of Cryptococcus gattii and Cryptococcus neoformans” (Journal of Fungi, 2025).
Where two headings read alike, the source gives them in different places.

Legend:
mice = test system: mice; design: method as in doi:10.1039/c2tx00010e; details: cited from earlier work; for Deaths, behavioral, dietary or body weight changes: 45 mg/kg daily for five days plus seven days observation; for AST and ALT activities vs control: 45 mg/kg daily for five days
[1] = test system: C. neoformans reference strains (ATCC 28957, H99, T1444); assay: MIC of complexes against reference strains; type: cell-based, Cryptococcus neoformans
Text: (§1) To further support and strengthen the evidence of the anti-Cryptococcus activity of the Cu-phendione and Ag-phendione complexes, we additionally performed MIC/MFC assays using well-characterized standard reference strains: ATCC 28957, […], […] (all C. neoformans), and […]).

[2] = test system: C. gattii clinical isolates; assay: MIC/MFC of test compounds, microdilution; type: cell-based, Cryptococcus gattii; details: for MIC: read-out: MIC
Text: (§2) Six clinical isolates belonging to the Cryptococcus genus were obtained from patients who attended the Instituto Nacional de Infectologia Evandro Chagas (INI), Fundação Oswaldo Cruz (FIOCRUZ), and were kindly provided by Dr. Rodrigo Almeida-Paes (INI-FIOCRUZ). To comply with ethical standards and institutional agreements between UFRJ and FIOCRUZ, patient data were not disclosed. In this sense, the C. neoformans isolates were designated CFP00213 (213), CFP00223 (223), and CFP00350 (350), while the C. gattii isolates were labeled CFP00023 (23), CFP00025 (25), and CFP00027 (27). Before each experiment, an aliquot of the culture was transferred from Sabouraud dextrose agar (2% glucose, 1% peptone, and 0.5% yeast extract) to RPMI 1640 medium (Sigma-Aldrich, St. Louis, MO, USA), pH 7.2, buffered with 0.165 M MOPS (Sigma-Aldrich, St. Louis, MO, USA). RPMI medium induces the expression of capsular polysaccharides, the primary virulence factor of Cryptococcus cells. The cultures were incubated at 37 °C for 48 h to promote cell proliferation, stimulate metabolic activation, and enhance capsular development. Yeast cell counts were determined using a Neubauer chamber.
(§3) Following MIC determination, the MFC was assessed by inoculating 10 µL from wells showing no visible fungal growth onto Sabouraud dextrose agar. […] To further support and strengthen the evidence of the anti-Cryptococcus activity of the Cu-phendione and Ag-phendione complexes, we additionally performed MIC/MFC assays using well-characterized standard reference strains: ATCC 28957, H99, T1444 (all C. neoformans), and R265 (C. gattii).

[3] = test system: C. neoformans or C. gattii; assay: Stability of antifungal activity (MIC repeated every six months over two years); type: cell-based, Cryptococcus neoformans and Cryptococcus gattii; details: same DMSO solution, room temperature, protected from light, MIC every six months for 730 days
Text: To evaluate the stability of the antifungal activity of the test complexes, the MIC assay was repeated every six months over a two-year period using the same Ag-phendione or Cu-phendione solution. The solutions were stored at room temperature and protected from light to maintain their chemical integrity.

[4] = test system: Galleria mellonella larvae; assay: In vivo chronic toxicity, multiple treatment; details: for Alterations in stress indicators (melanization, cocoon formation) / Chronic toxicity (larval survival monitored over seven days): 62.5 µM daily for five consecutive days; for Larval survival: daily inoculation 62.5 µM for up to five days
Experimental: (§4) In this set of experiments, G. mellonella larvae weighing approximately 0.2–0.3 g and displaying clear, uniform coloration were used. The larvae were inoculated (10 µL/larva) using an insulin syringe (BD Ultra-Fine, Franklin Lakes, NJ, USA) at the last left proleg. […] We also assessed their coloration through visual analysis as an indicator of stress levels. Throughout the experiments, the larvae were maintained at 37 °C [19, 42]. Two distinct treatment protocols were designed to evaluate the effects of the test compounds on larval survivability, as detailed below.
For the chronic toxicity analysis, larvae were inoculated daily for five consecutive days with the test complexes (Cu-phendione or Ag-phendione) at a high concentration of 62.5 μM. Each group consisted of 10 larvae, while the control group received only sterile PBS with 4% DMSO.

[5] = test system: hemocytes of G. mellonella larvae; type: in vivo, Galleria mellonella; details: 24 h
Experimental: The hemocyte density in the hemolymph of larvae inoculated with both complexes was assessed to evaluate potential immunological changes in G. mellonella. […] To analyze hemocyte density, a ventral caudal incision was made between the last prolegs of each larva using a surgical scalpel, and 10 μL of hemolymph was collected. The hemolymph was then diluted 1:100 in 990 μL of an anticoagulant buffer solution (98 mM NaOH, 186 mM NaCl, 17 mM EDTA, and 41 mM citric acid, pH 4.5). The number of hemocytes in each dilution was subsequently counted using a Neubauer chamber (Thermo Fisher Scientific, Waltham, MA USA).

[6] = test system: Galleria mellonella larvae; assay: In vivo acute toxicity, single treatment; details: single inoculation; for Larval survival: 125–1000 µM, 10 µL/larva, 37 °C
Experimental: as §4
For the acute toxicity analysis, the test compounds were administered to the larvae in a single inoculation at concentrations ranging from 1000 to 125 μM. Each group consisted of 10 larvae, while the control group received only sterile PBS with 4% DMSO. […] The SI was calculated using the following equation: SI = G. mellonella CC50/Cryptococcus MIC.

hamsters = test system: hamsters; design: method as in doi:10.1016/j.ejmcr.2022.100093; details: 1 mg/kg five times per week for nine weeks; cited from earlier work
[7] = test system: C. gattii reference strain R265; assay: MIC of complexes against reference strain; type: cell-based, Cryptococcus gattii
Text: as §1

[8] = test system: C. neoformans clinical isolates; assay: MIC/MFC of test compounds, microdilution; type: cell-based, Cryptococcus neoformans; details: for MIC: read-out: MIC
Text: as §2, §3

Sheep erythrocytes = test system: Sheep erythrocytes
Experimental: To evaluate the hemolytic activity of the test compounds, the microdilution method was performed in PBS using 96-well cell culture plates, as described by Evans et al.. PBS containing the test compounds (phendione, Cu-phendione, and Ag-phendione) at varying concentrations (1.9–62.5 µM) was added to the wells. Sheep erythrocytes (Cultilab, Rio de Janeiro, RJ, Brazil) were diluted in PBS to a final concentration of 2% (approximately 2 × 10^8 erythrocytes) and added to each well. The final volume of each well was 200 μL. A negative control (PBS and blood) and a positive control (PBS, blood, and 1% Triton X-100) were also included. The plates were incubated at 37 °C for 24 h, then centrifuged at 500× g for 10 min at 4 °C. Following centrifugation, 100 μL of the supernatant from each well was transferred to a new 96-well microplate, and absorbance was measured using a microplate reader ([…] SkyHigh; Thermo Scientific, Waltham, MA, USA) at 415 nm. […] The average absorbance of the positive control was set as 100% hemolysis, and the percentage hemolysis of the other groups was calculated accordingly. The selectivity index (SI) was determined using the following equation: SI = erythrocyte CC50/Cryptococcus MIC.

[9] = all C. gattii clinical isolates
[10] = all C. neoformans clinical isolates

Compound	Deaths, behavioral, dietary or body weight changes (mice)	AST and ALT activities vs control (mice)	Acute toxicity: highest dose with 100% tolerance (mice) [mg/kg]	MIC ([1]; C. neoformans ATCC 28957) [µM]	MIC ([1]; C. neoformans H99) [µM]	MIC ([1]; C. neoformans T1444) [µM]	MFC ([2]; C. gattii isolate 23) [µM]	MIC ([2]; C. gattii isolate 23) [µM]	MFC ([2]; C. gattii isolate 25) [µM]	MIC ([2]; C. gattii isolate 25) [µM]	MFC ([2]; C. gattii isolate 27) [µM]	MIC ([2]; C. gattii isolate 27) [µM]	MFC [2, 9] [µM]	MIC [2, 9] [µM]	Stability of antifungal activity (MIC variation) [3]	Alterations in stress indicators (melanization, cocoon formation) [4]	Chronic toxicity (larval survival monitored over seven days) [4]	Larval survival [4] [%]	Changes in melanization or silk/cocoon production [6]	Larval survival [6] [%]	further results
O=C1C(=O)c2cccnc2-c2ncccc21.O=C1C(=O)c2cccnc2-c2ncccc21.[Ag+].[O-][Cl+3]([O-])([O-])[O-] [Ag-phendione, [Ag(phendione)2]ClO4]	no deaths or behavioral, dietary, or body weight changes	No significant differences	150	0.19	0.78	0.78	12.5	1.56	12.5	1.56	12.5	1.56	12.5	1.56	No variation in MIC values	no alterations	non-toxic	100	no visible changes in melanization or silk/cocoon production	100	Hemocyte density vs PBS control ([5]; single inoculation, any concentration tested (15.6–1000 µM)): did not significantly affect hemocyte density; Deaths, changes in behavior, diet or body weight (hamsters): no deaths or changes in behavior, diet, or body weight; Urea, creatinine, AST, ALT and alkaline phosphatase levels vs control (hamsters): no differences; MIC [7]: 0.19 µM; MFC ([8]; C. neoformans isolate 213): 25 µM; MIC ([8]; C. neoformans isolate 213): 1.56 µM; MFC ([8]; C. neoformans isolate 223): 25 µM; MIC ([8]; C. neoformans isolate 223): 1.56 µM; MFC ([8]; C. neoformans isolate 350): 25 µM; MIC ([8]; C. neoformans isolate 350): 1.56 µM; MFC [8, 10]: 25 µM; MIC [8, 10]: 1.56 µM
O.O.O.O.O=C1C(=O)c2cccnc2-c2ncccc21.O=C1C(=O)c2cccnc2-c2ncccc21.O=C1C(=O)c2cccnc2-c2ncccc21.[Cu+2].[O-][Cl+3]([O-])([O-])[O-].[O-][Cl+3]([O-])([O-])[O-] [Cu-phendione, [Cu(phendione)3](ClO4)2·4H2O]	no deaths or behavioral, dietary, or body weight changes	No significant differences	45	1.56	0.78	0.78	12.5	6.25	12.5	6.25	12.5	6.25	12.5	6.25	No variation in MIC values	no alterations	non-toxic	100	no visible changes in melanization or silk/cocoon production	100	Hemocyte density vs PBS control ([5]; single inoculation 15.625 µM): significant increase in hemocyte density; Hemocyte density vs PBS control ([5]; single inoculation 31.25 µM): significant increase in hemocyte density; Hemocyte density vs PBS control ([5]; single inoculation, other tested concentrations): No notable changes in hemocyte levels; CC50 ([6]; assumed, read-out: CC50 (G. mellonella larvae)): > 1000 µM; CC50 (Sheep erythrocytes): > 62.5 µM; Deaths, changes in behavior, diet or body weight (hamsters): no deaths or changes in behavior, diet, or body weight; Urea, creatinine, AST, ALT and alkaline phosphatase levels vs control (hamsters): no differences; MIC [7]: 0.19 µM; MFC ([8]; C. neoformans isolate 213): 50 µM; MIC ([8]; C. neoformans isolate 213): 3.125 µM; MFC ([8]; C. neoformans isolate 223): 50 µM; MIC ([8]; C. neoformans isolate 223): 3.125 µM; MFC ([8]; C. neoformans isolate 350): 50 µM; MIC ([8]; C. neoformans isolate 350): 3.125 µM; MFC [8, 10]: 50 µM; MIC [8, 10]: 3.125 µM
